Measured values taken from publication PMC3989846 (Malaria Journal, 2014).
Where two headings read alike, the source gives them in different places.

What was measured:
[1] = Plasma pharmacokinetics after single intravenous or intragastric dose; assay type: in vivo, male ICR mice; settings: for Cmax / AUC / AUC(0-t) / MRT / Tmax / bioavailability / clearance / Vd / half-life: ICR, mouse; for AUC: read-out: AUCinfininty; for bioavailability: intragastric 20 mg/kg vs intravenous 5 mg/kg, read-out: Absolute bioavailability; for Vd: read-out: Vz; for half-life: read-out: t1/2 elimination (converted)
Experimental: (§1) PK studies were performed using both intravenous (IV) and intragastric (IG) administration. For each time point to be acquired, three male ICR mice per time-point, aged seven weeks, were dosed at either PQ or TQ at 5 mg/kg (IV) or 20 mg/kg (IG). Drug vehicle for IV studies was 0.9% saline solution, and the formulated drugs were administered in a volume of 100 μL/20 g of body weight. For IG dosing, the drug vehicle was 0.5% HECT, administered at 100 μL/20 g. At each time point, plasma and liver samples were collected. Whole blood was collected by cardiac puncture. […] Following the separation of appropriate aliquots, plasma was obtained from the whole blood via centrifugation. All liquid and tissue samples were immediately preserved on dry ice and lately stored at -80°C until analytical work was performed.
Sample was prepared by adding twice the normal volume of acetonitrile containing indomethacin internal standard (IS). The samples were mixed for 1 minute, centrifugation for 5 minutes, and the supernatant was transferred to an autosampler injection vial prior to separation by LC/MS/MS. Standard curve and quality control (QC) samples were generated by spiking interference free mouse plasma samples with known amounts of PQ, TQ and IS. Standard curve, QC, and assay samples were prepared and then 40 μL aliquots were injected into the LC/MS/MS system for chromatographic separation and subsequent mass spectrometric detection.
(§2) Chromatography was performed using a Surveyor pump (Thermo Scientific, Waltham, MA) with Waters XTerra MS C18 50 mm × 2.1 mm id, 3.5 μm particle size columns (Waters Corp., Milford, MA). Mobile phase consisted of a water/0.1% formic acid (Solvent A)/acetonitrile/0.1% formic acid (Solvent B) gradient. […] Flow rate was 300 μL/min. Samples were injected using an HTC PAL autosampler (LEAP Technologies, Carrboro, NC). Tandem mass spectrometry was performed using a TSQ Quantum AM (Thermo Scientific).
(§3) Drug concentrations were generated for each sample taken from animals dosed with both test drugs. A measured plasma and liver drug concentration vs. time curve was produced, in graphic and tabular form, for each subject on both linear/linear and log/linear scales, for the parent compound. Mean plasma drug concentration vs. time curves were also prepared separately. For the determination of initial approach to PK parameters of TQ and PQ in plasma and liver tissues after systemic application, a non-compartmental analysis was performed using Phoenix (version 6.1; Pharsight Corp., Mountain View, CA). Maximum plasma and liver concentration (Cmax), and time to maximum concentration (tmax) of TQ and PQ were obtained from the plasma and liver drug concentration-time curves. The elimination half-life (t1/2) was calculated from In2/kel, which is the elimination rate constant calculated from the log concentration-time plot. The area under the curve (AUC) and the area under the first moment curve (AUMC) were determined by the linear trapezoidal rule with extrapolation to infinity based on the concentration of the last time point divided by the terminal rate constant. Mean clearance rate (CL) was determined by dividing the dose by the AUCinf for intravenous injection for plasma samples. Absolute bioavailability was calculated by taking the dose-corrected area under the curve (AUC) from non-intravenous dosing divided by the AUC derived from intravenous dosing. Mean residence time (MRT) was determined by dividing the area under the first moment curve (AUMC) by AUC. The volume of the central compartment (Vz) and volume of the tissue compartment (Vz/F) were calculated as the product of CL and MRT.

[2] = parameters: method as in PMID 9598455; settings: cited from earlier work
[3] = parameters: method as in PMID 15378438, PMID 10479159; settings: cited from earlier work
[4] = Liver tissue distribution pharmacokinetics after single intravenous or intragastric dose; assay type: in vivo, male ICR mice; settings: for Kp: liver/plasma, read-out: AUCinf ratio (liver/plasma); for half-life: read-out: t1/2 elimination (converted)
Experimental: as §1
Blank liver homogenate was prepared by adding 5 mL of water for each gram of liver, then the mixture was homogenized using an ultra-sonication probe (VCX 750, Sonics & Materials, Inc., Newtown, CT). […] The serial dilutions for analysis also included the preparation of 4–5 QC samples at a low range point and a high range point (generally 10 ng/mL and 100 ng/mL, respectively). Once the standard curve dilutions were prepared, a 100 μL aliquot was removed and extracted with 200 μL acetonitrile. The extracted samples were centrifuged at 10,000 rpm for 10 min and the supernatant was removed for analysis by LC-MS/MS. Sample drug concentrations were first interpolated from the standard curve, then multiplied by a factor of 6 to account for the drug levels present in the liver prior to dilution with water for homogenization.
as §2, §3

[5] = parameters: method as in PMID 9598455; settings: simulated gastric fluid; cited from earlier work
[6] = male, in vivo, po, intragastric 20 mg/kg, plasma
[7] = male, in vivo, intravenous 5 mg/kg, plasma
[8] = male, po, intragastric 20 mg/kg, plasma
[9] = male, intravenous 5 mg/kg, plasma
[10] = male, ICR, mouse, po, intragastric 20 mg/kg, liver
[11] = male, ICR, mouse, intravenous 5 mg/kg, liver

Question: Which Cmax ([1]; in vivo, intravenous 5 mg/kg, plasma, male mice) does the source give for `COc1cc(NC(C)CCCN)c2ncccc2c1` (stereo not drawn) [Primaquine, primaquine] here?
Answer: 1210 ± 210 ng/mL

Question: And the Cl ([1]; intragastric 20 mg/kg, plasma)?
Answer: 57.94 ± 20.52 L/h/kg

Question: And the Vz ([1]; intragastric 20 mg/kg, plasma)?
Answer: 154.66 ± 61.83 L/kg

Question: What about the AUCinfininty ([1]; intravenous 5 mg/kg, plasma, 5 mg/kg) of the same compound?
Answer: 1.26 ± 0.14 µg·h/mL

Question: And the AUC ([1]; male, in vivo, iv, 5 mg/kg, intravenous 5 mg/kg, plasma)?
Answer: 1200 ng·h/mL

Question: What about the AUC ([1]; male, in vivo, po, 20 mg/kg, intragastric 20 mg/kg, plasma) of the same compound?
Answer: 1310 ± 410 ng·h/mL

Question: And the AUC(0-t) [1, 6]?
Answer: 1260 ± 400 ng·h/mL

Question: And the Cmax [1, 6]?
Answer: 530 ± 70 ng/mL

Question: And the MRT [1, 6]?
Answer: 2.28 ± 0.1 h

Question: What about the Tmax ([1]; male, in vivo, po, intragastric 20 mg/kg, plasma, read-out: Tmax) of the same compound?
Answer: 30 min

Question: What about the Tmax ([1]; male, in vivo, absorbed from the gastrointestinal tract, mice, read-out: time to peak plasma levels) of the same compound?
Answer: ≤ 5 min

Question: What about the bioavailability ([1]; male, in vivo, plasma) of the same compound?
Answer: 28.3 ± 6.93%

Question: What about the AUC(0-t) [1, 7] of the same compound?
Answer: 1200 ± 130 ng·h/mL

Question: What about the MRT [1, 7] of the same compound?
Answer: 0.68 ± 0.02 h

Question: And the clearance [1, 7]?
Answer: 69.8 mL/min/kg

Question: What about the Tmax ([1]; male, in vivo, intravenous 5 mg/kg, plasma, read-out: Tmax) of the same compound?
Answer: 4.8 min

Question: And the Vd [1, 7]?
Answer: 3.85 ± 0.71 L/kg

Question: What about the “dose excreted as unchanged drug in the urine” value [2] of the same compound?
Answer: less than 1%

Question: Which results are given for `COc1cc(C)c2c(Oc3cccc(C(F)(F)F)c3)c(OC)cc(NC(C)CCCN)c2n1` (stereo not drawn) [Tafenoquine, tafenoquine]?
Answer: half-life [3]: approximately 14 days; Cmax ([1]; intravenous 5 mg/kg, plasma, male mice): 660 ± 130 ng/mL; Cl ([1]; intragastric 20 mg/kg, plasma): 0.15 ± 0.03 L/h/kg; Vz ([1]; intragastric 20 mg/kg, plasma): 10.60 ± 1.22 L/kg; bioavailability ([1]; male, oral, plasma): 101 ± 37.5%; AUC(0-t) [1, 8]: 138000 ± 24400 ng·h/mL; Cmax [1, 8]: 2040 ± 590 ng/mL; MRT [1, 8]: 62.1 ± 2.3 h; AUC [1, 8]: 139000 ± 24900 ng·h/mL; Tmax ([1]; male, po, intragastric 20 mg/kg, plasma, read-out: Tmax): 680 ± 322 min; half-life [1, 8]: 2.12 ± 0.176 days; AUC(0-t) [1, 9]: 29600 ± 6740 ng·h/mL; MRT [1, 9]: 55.9 ± 3.86 h; clearance [1, 9]: 2.83 mL/min/kg; AUC [1, 9]: 30100 ± 6650 ng·h/mL; Tmax ([1]; male, intravenous 5 mg/kg, plasma, read-out: Tmax): 81.6 ± 66.6 min; Vd [1, 9]: 16.8 ± 6.44 L/kg; half-life [1, 9]: 2.76 ± 0.43 days; absolute bioavailability of oral TQ, fold greater than oral PQ ([1]; oral): 3.5 fold; clearance as % of the hepatic blood flow ([1]; oral CL 0.15 L/hours/kg): 3%; AUCinf of oral TQ, fold higher than oral PQ ([1]; oral, plasma): 94 fold; Cmax of oral TQ, fold higher than oral PQ ([1]; oral, plasma): approximately 4 fold; elimination clearance of oral TQ, fold slower than oral PQ ([1]; oral, plasma): 370 fold; absorption rate of oral TQ, fold slower than PQ ([1]; oral, plasma, mice): 22.7 fold; duration of quantifiable concentrations ([1]; single 20 mg/kg dose): more than two weeks; Cmax ([4]; ICR, mouse, intravenous 5 mg/kg, liver, male mice (head: μg/mL or g), read-out: Cmax): 44800 ± 30000 ng/g; AUCinf ratio (liver/plasma) ([4]; intragastric 20 mg/kg): 48.91 ± 22.67; Cmax ([4]; intragastric 20 mg/kg, liver): 56.90 ± 26.09 µg/mL; AUCinf ratio (liver/plasma) ([4]; intravenous 5 mg/kg, 5 mg/kg): 87.24 ± 44.29; AUClast ([4]; intravenous 5 mg/kg, liver (μg · h/mL or g)): 2493.82 ± 1361.10 µg·h/g; AUCinfininty ([4]; intravenous 5 mg/kg, liver (μg · h/mL or g), 5 mg/kg): 2544.96 ± 1348.03 µg·h/g; AUCinfininty ([4]; intravenous 5 mg/kg, liver (μg · h/mL or g), listed as TQ, 5 mg/kg): 2544.96 µg·h/g; Kp ([4]; male, ICR, mouse, po, intragastric 20 mg/kg): 48.9; Kp ([4]; male, ICR, mouse, intravenous 5 mg/kg): 87.2; MRT [4, 10]: 88.7 ± 13 h; Tmax [4, 10]: 1.17 ± 0.76 h; half-life [4, 10]: 3.15 ± 0.503 days; MRT [4, 11]: 66.1 ± 19.2 h; Tmax [4, 11]: 3.69 ± 2.29 h; half-life [4, 11]: 2.92 ± 0.181 days; Cmax ([4]; male, ICR, mouse, single oral dose 20 mg/kg, liver, read-out: Cmax): 56900 ng/g; Cmax of orally dosed TQ, fold higher than PQ in liver tissue ([4]; oral, liver): ~7 fold; elimination half-life of oral TQ, fold longer than oral PQ in the liver ([4]; oral, liver): 17.6 fold; AUCinf ([4]; single oral dose 20 mg/kg, liver): 5391.86 µg·h/g; time to complete dissolution [5]: ≤ 30 min
